Source: patent publication US11555036B2, “FGFR4 inhibitor, preparation method therefor and pharmaceutical use thereof” (Abbisko Therapeutics Co., Ltd., priority 2016, dated 2023)

Assays:
FGFR4 = FGFR4 (Homo sapiens, UniProt P22455); experiment: FGFR4 Caliper Assay (in vitro biochemical kinase analysis of FGFR4); conditions: read-out: Enzymatic activity FGFR4 IC50
How it was run: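 Kinase reaction at 30° C for 40 min in 50 mM HEPES pH 7.5, 16 mM MgCl2, 1 mM DTT, 0.6% DMSO, stopped with EDTA. Phosphorylated and unphosphorylated fluorescent peptides separated by Caliper microfluidic mobility shift. IC50 by non-linear regression of percent inhibition.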

[1] = tested on: Huh7 hepatocellular carcinoma cells; experiment: FGFR4 cell proliferation experiment, Cell Titer Glo (CTG); type: cell-based; conditions: HuH-7 cells, 3 days; for IC50: concentration leading to absolute half growth inhibition; for EC50: concentration leading to half maximal growth inhibition
How it was run: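 Cells treated with 5-fold serial dilutions starting at 10 μM for 3 days at 37° C, 5% CO2. Proliferation/survival quantified as cellular ATP by CellTiter-Glo luminescence.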

FGFR4, sequence (P22455 22-802): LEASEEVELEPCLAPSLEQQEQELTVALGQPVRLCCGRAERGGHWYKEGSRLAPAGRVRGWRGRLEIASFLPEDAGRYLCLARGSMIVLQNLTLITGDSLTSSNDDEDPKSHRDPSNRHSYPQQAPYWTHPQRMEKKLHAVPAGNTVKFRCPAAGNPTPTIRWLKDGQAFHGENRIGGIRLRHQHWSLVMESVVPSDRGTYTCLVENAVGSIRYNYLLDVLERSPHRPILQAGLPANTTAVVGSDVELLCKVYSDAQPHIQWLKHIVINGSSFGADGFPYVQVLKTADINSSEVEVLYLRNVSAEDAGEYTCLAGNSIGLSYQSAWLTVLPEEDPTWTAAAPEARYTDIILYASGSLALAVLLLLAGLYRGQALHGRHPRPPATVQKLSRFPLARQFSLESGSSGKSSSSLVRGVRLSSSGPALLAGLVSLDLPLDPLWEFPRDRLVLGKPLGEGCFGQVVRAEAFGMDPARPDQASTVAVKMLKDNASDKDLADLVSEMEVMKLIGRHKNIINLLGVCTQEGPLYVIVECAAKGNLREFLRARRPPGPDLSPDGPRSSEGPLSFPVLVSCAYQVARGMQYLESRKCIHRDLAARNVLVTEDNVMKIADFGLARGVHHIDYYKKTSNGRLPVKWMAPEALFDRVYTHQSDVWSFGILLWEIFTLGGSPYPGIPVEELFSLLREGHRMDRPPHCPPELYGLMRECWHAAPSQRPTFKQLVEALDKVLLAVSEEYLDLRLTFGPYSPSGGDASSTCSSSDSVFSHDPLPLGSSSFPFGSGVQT

| Structure (SMILES) | IC50 (FGFR4) [nM] | IC50 ([1]; Homo sapiens, Huh-7, 72 h) [nM] | EC50 ([1]; Homo sapiens, Huh-7, 72 h) [nM] | IC50 [1] [nM] | EC50 [1] [nM] |
| --- | --- | --- | --- | --- | --- |
| C=CC(=O)N[C@H]1COC[C@H]1Nc1ncc2cc(-c3c(F)c(OC)cc(OC)c3F)nc(N3CC4CC(C3)O4)c2n1 [Example 769, N-((3R,4S)-4-((8-(6-oxa-3-azabicyclo[3.1.1]heptan-3-yl)-6-(2,6-difluoro-3,5-dimethoxy-phenyl)pyrido[3,4-d]pyrimidin-2-yl)amino)tetrahydrofuran-3-yl)acrylamide] | 3.7 | 10 | 8.4 | – | – |
| C=CC(=O)N[C@H]1COC[C@H]1Nc1ncc2cc(-c3cccc(OC)c3F)nc(NC)c2n1 [Example 770, N-((3R,4S)-4-((6-(2-fluoro-3-meth-oxyphenyl)-8-(methylamino)pyrido[3,4-d]pyrimidin-2-yl)amino)tetrahydro-furan-3-yl)acrylamide] | 2410 | > 10000 | > 10000 | – | – |
| C=CC(=O)N[C@H]1COC[C@H]1Nc1ncc2cc(-c3c(F)c(OC)cc(OC)c3F)nc(N3CC(C)(O)C3)c2n1 [Example 773, N-((3R,4S)-4-((6-(2,6-difluoro-3,5-dimethoxyphenyl)-8-(3-hydroxy-3-meth-ylazetidin-1-yl)pyrido[3,4-d]py-rimidin-2-yl)amino)tetrahydrofuran-3-yl)acrylamide] | 1.8 | 2.3 | 2 | – | – |
| C=CC(=O)N[C@H]1CCOC[C@H]1Nc1ncc2cc(-c3c(F)c(OC)cc(OC)c3F)nc(N3CC(OC)C3)c2n1 [Example 775, N-((3S,4S)-3-((6-(2,6-difluoro-3,5-dimethoxyphenyl)-8-(3-methoxyazetidin-1-yl)pyrido[3,4-d]pyrimidin-2-yl)amino)tetrahydro-2H-pyran-4-yl)acrylamide] | 8.9 | 27.8 | 20.8 | – | – |
| C=CC(=O)N[C@H]1CCOC[C@H]1Nc1ncc2cc(-c3c(F)c(OC)cc(OC)c3F)nc(N3CC(F)(F)C3)c2n1 [Example 791, N-((3S,4S)-3-((6-(2,6-difluoro-3,5-dimethoxyphenyl)-8-(3,3-difluoroazet-idin-1-yl)pyrido[3,4-d]pyrimidin-2-yl)amino)tetrahydro-2H-pyran-4-yl)acrylamide] | 3.7 | 8.4 | 6.4 | – | – |
| C=CC(=O)N[C@H]1CCOC[C@H]1Nc1ncc2cc(-c3c(F)c(OC)cc(OC)c3F)nc(N3CCC3)c2n1 [Example 792, N-((3S,4S)-3-((8-(azetidin-1-yl)-6-(2,6-difluoro-3,5-dimethoxyphenyl)py-rido[3,4-d]pyrimidin-2-yl)amino)tetra-hydro-2H-pyran-4-yl)acrylamide] | 3.1 | 6.2 | 4.8 | – | – |
| C=CC(=O)N[C@H]1CCOC[C@H]1Nc1ncc2cc(-c3c(F)c(OC)cc(OC)c3F)nc(N3CCC(OC)C3)c2n1 (stereo partly drawn) [Example 794, N-((3S,4S)-3-((6-(2,6-difluoro-3,5-dimethoxyphenyl)-8-(3-methoxy-pyrrolidin-1-yl)pyrido[3,4-d]py-rimidin-2-yl)amino)tetrahydro-2H-pyran-4-yl)acrylamide] | 4.8 | 6.9 | 5.5 | – | – |

More lines, in order of falling IC50 (FGFR4), values ahead:

| IC50 (FGFR4) [nM] | IC50 ([1]; Homo sapiens, Huh-7, 72 h) [nM] | EC50 ([1]; Homo sapiens, Huh-7, 72 h) [nM] | IC50 [1] [nM] | EC50 [1] [nM] | Structure (SMILES) |
| --- | --- | --- | --- | --- | --- |
| 45 | 103 | 86 | – | – | C=CC(=O)N[C@H]1CCOC[C@H]1Nc1ncc2cc(-c3c(F)c(OC)cc(OC)c3F)nc(NCC)c2n1 [Example 787, N-((3S,4S)-3-((6-(2,6-difluoro-3,5-dimethoxyphenyl)-8-(ethylamino)pyri-do[3,4-d]pyrimidin-2-yl)amino)tetra-hydro-2H-pyran-4-yl)acrylamide] |
| 17 | 47.6 | 38.4 | – | – | C=CC(=O)N[C@H]1CCOC[C@H]1Nc1ncc2cc(-c3c(F)c(OC)cc(OC)c3F)nc(NC)c2n1 [Example 786, N-((3S,4S)-3-((6-(2,6-difluoro-3,5-dimethoxyphenyl)-8-(methylamino)py-rido[3,4-d]pyrimidin-2-yl)amino)tetra-hydro-2H-pyran-4-yl)acrylamide] |
| 8.5 | 13.6 | 11.4 | – | – | C=CC(=O)N[C@H]1CCOC[C@H]1Nc1ncc2cc(-c3c(F)c(OC)cc(OC)c3F)nc(N3CC(C)(OC)C3)c2n1 [Example 790, N-((3S,4S)-3-((6-(2,6-difluoro-3,5-dimethoxyphenyl)-8-(3-methoxy-3-methylazetidin-1-yl)pyrido[3,4-d]py-rimidin-2-yl)amino)tetrahydro-2H-pyran-4-yl)acrylamide] |
| 7.9 | 32.3 | 25.5 | – | – | [2H]C([2H])([2H])Nc1nc(-c2c(Cl)c(OC)cc(OC)c2Cl)cc2cnc(N[C@@H]3COC[C@@H]3NC(=O)C=C)nc12 [Example 771, N-((3R,4S)-4-((6-(2,6-dichloro-3,5-dimethoxyphenyl)-8-((methyl-d3)ami-no)pyrido[3,4-d]pyrimidin-2-yl)ami-no)tetrahydrofuran-3-yl)acrylamide] |
| 7.8 | 15.9 | 12.6 | – | – | C=CC(=O)N[C@H]1CCOC[C@H]1Nc1ncc2cc(-c3c(F)c(OC)cc(OC)c3F)nc(N3CCOCC3)c2n1 [Example 789, N-((3S,4)S-3-((6-(2,6-difluoro-3,5-dimethoxyphenyl)-8-morpholinopy-rido[3,4-d]pyrimidin-2-yl)amino)tetra-hydro-2H-pyran-4-yl)acrylamide] |
| 5.3 | 9.9 | 7.9 | – | – | C=CC(=O)N[C@H]1CCOC[C@H]1Nc1ncc2cc(-c3c(F)c(OC)cc(OC)c3F)nc(N3CC(C)(O)C3)c2n1 [Example 793, N-((3S,4S)-3-((6-(2,6-difluoro-3,5-dimethoxyphenyl)-8-(3-hydroxy-3-methylazetidin-1-yl)pyrido[3,4-d]py-rimidin-2-yl)amino)tetrahydro-2H-pyran-4-yl)acrylamide] |
| 4.9 | – | – | 9.4 | 7.9 | C=CC(=O)N[C@H]1COC[C@H]1Nc1ncc2cc(-c3c(Cl)c(OC)cc(OC)c3Cl)nc(N3CC4(CCOCC4)C3)c2n1 [Example 776, N-((3R,4S)-4-((6-(2,6-dichloro-3,5-dimethoxyphenyl)-8-(7-oxa-2-azaspiro [3.5]nonan-2-yl)pyrido[3,4-d]pyrimi-din-2-yl)amino)tetrahydrofuran-3-yl)acrylamide] |
| 4 | 12.5 | 9.9 | – | – | C=CC(=O)N[C@H]1COC[C@H]1Nc1ncc2cc(-c3c(F)c(OC)cc(OC)c3F)nc(N3CC(F)(F)C3)c2n1 [Example 768, N-((3R,4S)-4-((6-(2,6-difluoro-3,5-dimethoxyphenyl)-8-(3,3-difluoro-azetidin-1-yl)pyrido[3,4-d]pyrimi-din-2-yl)amino)tetrahydro-furan-3-yl)acrylamide] |
| 3.2 | 8.8 | 6.9 | – | – | C=CC(=O)N[C@H]1COC[C@H]1Nc1ncc2cc(-c3c(F)c(OC)cc(OC)c3F)nc(N3CCC3)c2n1 [Example 774, N-((3R,4S)-4-((8-(azetidin-1-yl)-6-(2,6-difluoro-3,5-dimethoxyphenyl)py-rido[3,4-d]pyrimidin-2-yl)amino)tetra-hydrofuran-3-yl)acrylamide] |
| 2.9 | 8.1 | 6.8 | – | – | C=CC(=O)N[C@H]1COC[C@H]1Nc1ncc2cc(-c3c(F)c(OC)cc(OC)c3F)nc(N3CCC(C)(O)C3)c2n1 (stereo partly drawn) [Example 772, N-((3R,4S)-4-((6-(2,6-difluoro-3,5-dimethoxyphenyl)-8-(3-hydroxy-3-methylpyrrolidin-1-yl)pyrido[3,4-d]py-rimidin-2-l)amino)tetrahydrofuran-3-yl)acrylamide] |
